Test results from patent US8013006B2.
pIC50: −log10 of the molar value.

test system: HCV replicon; assay: microbe, parasite or virus in culture; assay type: cell-based; settings: Hepatitis C virus, 48 h, read-out: Replicon IC5Os μM

Row | SMILES | IC50 [µM]
1 | CCn1c(NC(=O)c2ccccc2)c(C#N)c2ccc(OC)cc21 [Compound 204] | < 0.5

same assay, conditions: Replicon IC50 values are determined by firefly luciferase signal; bicistronic replicon, 2 days; read-out: Replicon IC5Os

Row | SMILES | pIC50
2 | CCn1c(C#Cc2ccc(OC)cc2C)c(C#N)c2ccc(OC)cc21 [Compound 137] | 5.70 to 6.30
3 | CCn1cc(C#N)c2cc(-c3cccs3)ccc21 [Compound 140] | < 5.70
4 | CCn1cc(C#N)c2cc(-c3ccoc3)ccc21 [Compound 142] | < 5.70
5 | CCn1c(C#Cc2ccc(N3CCCCC3)cc2)c(C#N)c2ccc(OC)cc21 [Compound 143] | < 5.70
6 | CCn1c(C#Cc2cccc(Cl)c2)c(C#N)c2ccc(OC)cc21 [Compound 146] | 5.70 to 6.30
7 | CCn1c(C#Cc2ccc(N(C)C)cc2)c(C#N)c2ccc(OC)cc21 [Compound 147] | 5.70 to 6.30
8 | CCn1c(C#Cc2ccc(Cl)cc2)c(C#N)c2ccc(OC)cc21 [Compound 148] | 5.70 to 6.30
9 | CCOc1ccc(C#Cc2c(C#N)c3ccc(OC)cc3n2CC)cc1 [Compound 149] | 5.70 to 6.30
10 | CCn1c(C#Cc2ccccc2F)c(C#N)c2ccc(OC)cc21 [Compound 150] | 5.70 to 6.30
11 | CCn1c(C#Cc2cccc(F)c2)c(C#N)c2ccc(OC)cc21 [Compound 151] | 5.70 to 6.30
12 | CCn1c(C#Cc2ccc(NC(=O)C(C)C)cc2)c(C#N)c2ccc(OC)cc21 [Compound 152] | < 5.70
13 | CCn1c(C#Cc2ccc(OC)c(OC)c2)c(C#N)c2ccc(OC)cc21 [Compound 159] | 5.70 to 6.30
14 | CCn1c(C#Cc2ccc(NC(=O)[C@@H]3CCCN3)cc2)c(C#N)c2ccc(OC)cc21 [Compound 162] | < 5.70
15 | CCn1c(C#Cc2ccc(NC(=O)c3c[nH]cn3)cc2)c(C#N)c2ccc(OC)cc21 [Compound 163] | 5.70 to 6.30
16 | CCC(=O)Nc1ccc(C#Cc2c(C#N)c3ccc(O)cc3n2CC)cc1 [Compound 164] | 5.70 to 6.30
17 | CCn1c(C#Cc2ccc(NC(=O)CN)cc2)c(C#N)c2ccc(OC)cc21 [Compound 165] | < 5.70
18 | CCn1c(C#Cc2ccccc2N)c(C#N)c2ccc(OC)cc21 [Compound 169] | 5.70 to 6.30
19 | CCn1c(C#Cc2cccs2)c(C#N)c2ccc(OC)cc21 [Compound 170] | 5.70 to 6.30
20 | CCn1c(C#Cc2ccsc2)c(C#N)c2ccc(OC)cc21 [Compound 171] | 5.70 to 6.30
21 | CCn1c(C#Cc2ccccn2)c(C#N)c2ccc(OC)cc21 [Compound 174] | 5.70 to 6.30
22 | CCn1c(C#Cc2ccc(OC)cc2)c(C#N)c2cc(OC)ccc21 [Compound 177] | 5.70 to 6.30
23 | CCn1c(C#Cc2ccc(C(F)(F)F)cc2)c(C#N)c2cc(OC)ccc21 [Compound 178] | < 5.70

Row | SMILES | pIC50
24 | CCn1cc(C#N)c2cc(C(F)(F)F)ccc21 [Compound 179] | 5.70 to 6.30
25 | CCn1c(-c2ccc(N(C)S(=O)(=O)CC)cc2)c(C#N)c2ccc(OC)cc21 [Compound 181] | 5.70 to 6.30
26 | CCn1c(C#Cc2cccc3ccccc23)c(C#N)c2ccc(O)cc21 [Compound 184] | 5.70 to 6.30
27 | CCn1c(C#Cc2ccc(OC)cc2)c(C#N)c2ccc(O)cc21 [Compound 186] | 5.70 to 6.30
28 | CCn1c(C#Cc2ccc(Cl)cc2)c(C#N)c2ccc(O)cc21 [Compound 187] | 5.70 to 6.30
29 | CCn1c(-c2ccc(NS(=O)(=O)CC)cc2)c(C#N)c2ccc(O)cc21 [Compound 190] | 5.70 to 6.30
30 | CCn1c(-c2ccc(N(C)S(C)(=O)=O)cc2)c(C#N)c2ccc(O)cc21 [Compound 191] | < 5.70
31 | CCn1c(C#Cc2ccc(NC(=O)C3CCCC3)cc2)c(C#N)c2ccc(O)cc21 [Compound 195] | 5.70 to 6.30
32 | CCn1c(C#Cc2ccc(OC)cc2)c(C#N)c2ccc(C(F)(F)F)cc21 [Compound 199] | < 5.70
33 | CCn1c(C#Cc2cccc(OC)c2)c(C#N)c2ccc(C(F)(F)F)cc21 [Compound 202] | 5.70 to 6.30
34 | CCn1c(NC(C)=O)c(C#N)c2ccc(OC)cc21 [Compound 203] | 5.70 to 6.30
35 | CCn1c(C#Cc2cccc(NS(C)(=O)=O)c2)c(C#N)c2ccc(OC)cc21 [Compound 208] | 5.70 to 6.30
36 | CCn1c(C#Cc2cccc(NS(=O)(=O)C(C)C)c2)c(C#N)c2ccc(OC)cc21 [Compound 210] | 5.70 to 6.30
37 | CCn1c(C#Cc2cccc(NC(=O)C(C)(C)C)c2)c(C#N)c2ccc(OC)cc21 [Compound 212] | 5.70 to 6.30
38 | CCn1c(NC(=O)c2cccc(F)c2)c(C#N)c2ccc(OC)cc21 [Compound 214] | > 6.30
39 | CCn1c(NC(=O)c2ccc(C#N)cc2)c(C#N)c2ccc(OC)cc21 [Compound 215] | 5.70 to 6.30
40 | CCn1c(C#Cc2cccc(N3CCNC3=O)c2)c(C#N)c2ccc(OC)cc21 [Compound 222] | 5.70 to 6.30
41 | CCn1c(C#Cc2ccc(N)cc2)c(C#N)c2cc(OC)ccc21 [Compound 223] | 5.70 to 6.30
42 | CCn1c(C#Cc2ccc(NC(C)=O)cc2)c(C#N)c2cc(OC)ccc21 [Compound 224] | 5.70 to 6.30
43 | CCC(=O)Nc1ccc(C#Cc2c(C#N)c3cc(OC)ccc3n2CC)cc1 [Compound 225] | 5.70 to 6.30
44 | CCn1c(C#Cc2ccc(NC(=O)COC)cc2)c(C#N)c2cc(OC)ccc21 [Compound 228] | < 5.70
45 | CCOc1ccc(-c2c(C#N)c3cc(OC)ccc3n2CC)cc1 [Compound 229] | < 5.70

Row | SMILES | pIC50
46 | COc1ccc2c(C#N)c(C#Cc3cccc4ccccc34)[nH]c2c1 [Compound 230] | < 5.70
47 | COc1ccc2c(C#N)c(C#Cc3cccc(O)c3)[nH]c2c1 [Compound 231] | < 5.70
48 | COc1ccc2c(C#N)c(C#Cc3cccc(Cl)c3)[nH]c2c1 [Compound 232] | < 5.70
49 | COc1ccc2c(C#N)c(C#Cc3ccc(N)cc3)[nH]c2c1 [Compound 234] | < 5.70
50 | COc1ccc2c(C#N)c(C#Cc3ccc(N(C)C)cc3)[nH]c2c1 [Compound 235] | 5.70 to 6.30
51 | COc1ccc2c(C#N)c(C#Cc3ccc(C)cc3)[nH]c2c1 [Compound 236] | < 5.70
52 | COc1cccc(C#Cc2[nH]c3cc(OC)ccc3c2C#N)c1 [Compound 237] | < 5.70
53 | COc1ccc2c(C#N)c(C#Cc3ccccc3)[nH]c2c1 [Compound 238] | < 5.70
54 | CCn1c(-c2ccc(N)cc2)c(C#N)c2cc(OC)ccc21 [Compound 239] | < 5.70
55 | CCn1c(-c2ccc(C(=O)OC)cc2)c(C#N)c2cc(OC)ccc21 [Compound 240] | < 5.70
56 | CCn1c(-c2ccc(NC(C)=O)cc2)c(C#N)c2cc(OC)ccc21 [Compound 242] | < 5.70
57 | CCn1c(-c2ccc(C(=O)N3CCCC3)cc2)c(C#N)c2cc(OC)ccc21 [Compound 246] | < 5.70
58 | CCn1c(-c2ccc(O)cc2)c(C#N)c2ccc(OC)cc21 [Compound 247] | < 5.70
59 | CCn1c(-c2ccc(OCCO)cc2)c(C#N)c2ccc(OC)cc21 [Compound 249] | 5.70 to 6.30
60 | CCn1c(-c2ccc(SC)cc2)c(C#N)c2ccc(OC)cc21 [Compound 250] | < 5.70
61 | COc1ccc2c(C#N)c(-c3ccc4c(c3)OCO4)n(C)c2c1 [Compound 254] | < 5.70
62 | CCn1c(-c2ccc(O)cc2)c(C#N)c2ccc(C(F)(F)F)cc21 [Compound 256] | < 5.70
63 | CCn1c(-c2ccc(N)cc2)c(C#N)c2ccc(C(F)(F)F)cc21 [Compound 257] | < 5.70
64 | CCn1c(-c2cccc(N)c2)c(C#N)c2ccc(C(F)(F)F)cc21 [Compound 258] | < 5.70
65 | CCn1c(-c2ccc(N(C)C)cc2)c(C#N)c2ccc(C(F)(F)F)cc21 [Compound 259] | < 5.70
66 | CCn1c(-c2ccc3c(c2)OCO3)c(C#N)c2ccc(C(F)(F)F)cc21 [Compound 260] | < 5.70
